According to patent US8889370B2, “Method of determining inhibitors of coagulation” (Siemens Healthcare Diagnostics Products GmbH, priority 2010, dated 2014):
Like-named read-outs stand apart in the source and are kept apart here.

Biological target: T1, bovine thrombin (Bos taurus, UniProt P00735)
T1 construct: a lyophilized thrombin reagent consisting of bovine thrombin; purchased Siemens Healthcare Diagnostics (hirudin activity assay, thrombin reagent)
Experiment: Determination of the thrombin binding constant (Ki) of peptide aldehyde ligands, chromogenic assay with hirudin activity assay reagents, Dixon plot
Format: biochemical
Experimental: The kinetic data of the peptide aldehyde ligands were determined in chromogenic assay formats by measuring the rate of hydrolysis of chromogenic peptide substrates which compete with the peptide aldehyde ligands for binding to the active site of the particular enzyme, at various substrate concentrations and peptide aldehyde-ligand concentrations. The binding constant (Ki) was determined by a known method (Dixon, M., 1953, Biochem J, 55, 170-171).
The thrombin binding constant was determined using the reagents of the hirudin activity assay from Siemens Healthcare Diagnostics. The hirudin activity assay comprises a lyophilized thrombin reagent consisting of bovine thrombin, a heparin inhibitor and aprotinin, a lyophilized chromogenic substrate reagent with a concentration of 4 mmol/l tos-Gly-Pro-Arg-ANBA-IPA (tosylglycyl-L-propyl-arginyl-5-amino-2-nitrobenzoyliso-propylamide) after reconstitution. The thrombin reagent was reconstituted in buffer solution (trishydroxymethylamino-methane, NaCl, pH 8.2). Dilutions of the substrate reagent were prepared with deionized water. The peptide aldehyde ligands prepared according to example 1 were dissolved in water and used as sample. The B-r-G-R—H ligand was used in a concentration range from 26.1 to 0.815 μM. The B-f-P—R—H ligand was used in a concentration range from 26.1 to 0 μM. The assays were carried out automatically in a BCS® XP coagulation analyzer (Siemens Healthcare Diagnostics, Marburg, Germany).
A reaction mix was mixed together as follows:
30 μl of sample (peptide aldehyde ligand B-r-G-R—H or B-f-P—R—H),
150 μl of thrombin reagent,
50 μl of chromogenic substrate reagent (tos-Gly-Pro-Arg-ABNA-IPA).
The reaction rate in mE/min was determined on the basis of the increase in optical density of the reaction mix at a wavelength of 405 nm. For this, the optical density of the reaction mixes was determined in time intervals of from 15 to 40 seconds for the B-f-P—R—H peptide aldehyde ligand or 5-16 seconds for the B-r-G-R—H peptide aldehyde ligand.
Reversibly and irreversibly binding ligands can be distinguished by their reaction kinetics. Plotting 1/v, where v is the reaction rate, as a function of the ligand concentration (i) at a constant concentration (S) of a cleavable substrate produces a line. When using two or more different substrate concentrations (S1, S2 . . . SN), said lines intersect at a single point. The x axis value of this point corresponds to −Ki, with Ki corresponding to the binding constant, see, for example, Klebe, G., Wirkstoffdesign, 2nd edition, Spektrum Akademischer Verlag, Heidelberg, Germany, 2009, pages 52-62 and Dixon, M., 1953, Biochem J, 55, 170-171. With an irreversible inhibition, the curves meet at a single point on the x axis, which again corresponds to −Ki.

## N=C(N)NCCC[C@@H](C=O)NC(=O)CNC(=O)[C@@H](CCCNC(=N)N)NC(=O)CCC(=O)NCCCOCCOCCOCCCNC(=O)CCCC[C@@H]1SC[C@@H]2NC(=O)N[C@@H]21 [B-r-G-R-H, biotinyl-Ttds-D-Arg-Gly-Arg-H]
CB-r-G-R-H 0.81522 μM, Csubstrate = 0.5 mM
  1/Reaction rate: 0.516 min/E
CB-r-G-R-H 0.81522 μM, Csubstrate = 2 mM
  1/Reaction rate: 0.3884 min/E
CB-r-G-R-H 0.81522 μM, Csubstrate = 4 mM
  1/Reaction rate: 0.3756 min/E
CB-r-G-R-H 1.30435 μM, Csubstrate = 0.5 mM
  1/Reaction rate: 0.5211 min/E
CB-r-G-R-H 1.30435 μM, Csubstrate = 2 mM
  1/Reaction rate: 0.3902 min/E
CB-r-G-R-H 1.30435 μM, Csubstrate = 4 mM
  1/Reaction rate: 0.3758 min/E
CB-r-G-R-H 1.63043 μM, Csubstrate = 0.5 mM
  1/Reaction rate: 0.5224 min/E
CB-r-G-R-H 1.63043 μM, Csubstrate = 2 mM
  1/Reaction rate: 0.3894 min/E
CB-r-G-R-H 1.63043 μM, Csubstrate = 4 mM
  1/Reaction rate: 0.3748 min/E
CB-r-G-R-H 2.60870 μM, Csubstrate = 0.5 mM
  1/Reaction rate: 0.5283 min/E
CB-r-G-R-H 2.60870 μM, Csubstrate = 2 mM
  1/Reaction rate: 0.3876 min/E
CB-r-G-R-H 2.60870 μM, Csubstrate = 4 mM
  1/Reaction rate: 0.373 min/E
CB-r-G-R-H 3.26087 μM, Csubstrate = 0.5 mM
  1/Reaction rate: 0.5385 min/E
CB-r-G-R-H 3.26087 μM, Csubstrate = 2 mM
  1/Reaction rate: 0.3968 min/E
CB-r-G-R-H 3.26087 μM, Csubstrate = 4 mM
  1/Reaction rate: 0.3807 min/E
CB-r-G-R-H 5.21739 μM, Csubstrate = 0.5 mM
  1/Reaction rate: 0.5408 min/E
CB-r-G-R-H 5.21739 μM, Csubstrate = 2 mM
  1/Reaction rate: 0.3946 min/E
CB-r-G-R-H 5.21739 μM, Csubstrate = 4 mM
  1/Reaction rate: 0.3761 min/E
CB-r-G-R-H 6.52174 μM, Csubstrate = 0.5 mM
  1/Reaction rate: 0.5637 min/E
CB-r-G-R-H 6.52174 μM, Csubstrate = 2 mM
  1/Reaction rate: 0.4008 min/E
CB-r-G-R-H 6.52174 μM, Csubstrate = 4 mM
  1/Reaction rate: 0.3841 min/E
CB-r-G-R-H 9.78261 μM, Csubstrate = 0.5 mM
  1/Reaction rate: 0.5802 min/E
CB-r-G-R-H 9.78261 μM, Csubstrate = 2 mM
  1/Reaction rate: 0.4106 min/E
CB-r-G-R-H 9.78261 μM, Csubstrate = 4 mM
  1/Reaction rate: 0.3805 min/E
CB-r-G-R-H 13.04348 μM, Csubstrate = 0.5 mM
  1/Reaction rate: 0.609 min/E
CB-r-G-R-H 13.04348 μM, Csubstrate = 2 mM
  1/Reaction rate: 0.4032 min/E
CB-r-G-R-H 13.04348 μM, Csubstrate = 4 mM
  1/Reaction rate: 0.3885 min/E
CB-r-G-R-H 16.30435 μM, Csubstrate = 0.5 mM
  1/Reaction rate: 0.6264 min/E
CB-r-G-R-H 16.30435 μM, Csubstrate = 2 mM
  1/Reaction rate: 0.414 min/E
CB-r-G-R-H 16.30435 μM, Csubstrate = 4 mM
  1/Reaction rate: 0.3865 min/E
CB-r-G-R-H 26.08696 μM, Csubstrate = 0.5 mM
  1/Reaction rate: 0.6903 min/E
CB-r-G-R-H 26.08696 μM, Csubstrate = 2 mM
  1/Reaction rate: 0.4285 min/E
CB-r-G-R-H 26.08696 μM, Csubstrate = 4 mM
  1/Reaction rate: 0.395 min/E
Csubstrate 0.5 mM
  Intersect of regression curve 1/reaction rate vs ligand concentration: 0.5122 min/E
  Slope of regression curve 1/reaction rate vs ligand concentration: 0.006964 min/E μM
Csubstrate 2 mM
  Intersect of regression curve 1/reaction rate vs ligand concentration: 0.3880 min/E
  Slope of regression curve 1/reaction rate vs ligand concentration: 0.001572 min/E μM
Csubstrate 4 mM
  Intersect of regression curve 1/reaction rate vs ligand concentration: 0.3746 min/E
  Slope of regression curve 1/reaction rate vs ligand concentration: 0.000805 min/E μM
Average of three Ki values, read-out: KiM average thrombin binding constant
  Ki: 20.9 µM
Intersection of regression curves Csubstrate 2 and 0.5 mM, read-out: Ki2&3 thrombin binding constant
  Ki: 23 µM
Intersection of regression curves Csubstrate 4 and 0.5 mM, read-out: Ki1&3 thrombin binding constant
  Ki: 22.3 µM
Intersection of regression curves Csubstrate 4 and 2 mM, read-out: Ki1&2 thrombin binding constant
  Ki: 17.4 µM
Intersections of regression curves not on the x axis
  binding of the peptide aldehyde with thrombin (reversible or irreversible): reversible
